The results in this text go back to US11560385B2, “Proteasome activity enhancing compounds” (Proteostasis Therapeutics, Inc., priority 2018, dated 2023).

pIC50: −log10 of the molar value.

Sequence of USP14 (P54578 whole entry, looked up): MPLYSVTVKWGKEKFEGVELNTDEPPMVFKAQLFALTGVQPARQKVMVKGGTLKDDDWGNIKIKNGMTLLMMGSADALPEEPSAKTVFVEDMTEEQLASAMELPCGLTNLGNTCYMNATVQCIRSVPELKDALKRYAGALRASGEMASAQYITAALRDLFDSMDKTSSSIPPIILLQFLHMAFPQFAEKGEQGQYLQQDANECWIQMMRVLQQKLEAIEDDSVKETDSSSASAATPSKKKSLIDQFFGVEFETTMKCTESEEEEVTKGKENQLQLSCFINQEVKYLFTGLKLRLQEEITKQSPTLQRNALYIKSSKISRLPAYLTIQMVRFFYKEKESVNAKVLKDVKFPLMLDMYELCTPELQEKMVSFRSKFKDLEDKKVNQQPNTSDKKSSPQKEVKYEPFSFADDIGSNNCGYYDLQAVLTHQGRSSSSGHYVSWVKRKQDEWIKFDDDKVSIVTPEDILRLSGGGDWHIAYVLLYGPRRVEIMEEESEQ

This experiment has as its target USP14 (Homo sapiens (Human), UniProt P54578). Description: Usp14 inhibition assay (Example 57B, B-series compounds). Format: biochemical. The following applies: IC50 class; average value from a minimum of two experimental determinations. The text has this:
Example 57B: Usp14 Inhibition Assay
The IC50 values in the Table below represent the average value from a minimum of two experimental determinations.
Consider `Cc1c(C(=O)CN2C3CCC2[C@@H](O)C3)cc(C2CCCC2)n1-c1ccc(C#N)cc1` (mixture of isomers) [Example 110B, (±)-4-(5-Cyclopentyl-3-(2-((2R)-2-hydroxy-7-azabicyclo[2.2.1]heptan-7-yl)acetyl)-2-methyl-1H-pyrrol-1-yl)benzonitrile], for which the negative logarithm of the IC50 (pIC50) (in general, the negative decadic logarithm of the IC50, by convention in mol/L) is 6.30 to 7.30.
Under `Cc1c(F)c(C(=O)CN2[C@@H]3CC[C@H]2[C@@H](C)C3)c(C)n1-c1ccc(C#N)cc1` (racemic) [Example 101B, (±)-4-(3-Fluoro-2,5-dimethyl-4-(2-((1S,2S,4R)-2-methyl-7-azabicyclo[2.2.1]heptan-7-yl)acetyl)-1H-pyrrol-1-yl)benzonitrile] stands 6.30 to 7.30.
Regarding `Cc1cc(C(=O)CN2[C@H]3CCC[C@@H]2[C@H](O)C3)c(C)n1-c1ccc(C#N)cc1` (racemic) [Example 82B, (±)-4-(3-(2-((1S,5R,6R)-6-Hydroxy-8-azabicyclo[3.2.1]octan-8-yl)acetyl)-2,5-dimethyl-1H-pyrrol-1-yl)benzonitrile], the negative logarithm of the IC50 (pIC50) was 6.30 to 7.30.
As for `Cc1c(C(=O)CN2C3CCC2C(O)C3)cc([C@@H]2C[C@H]2C)n1-c1ccc(C#N)cc1` (mixture of isomers) [Example 142B, (±)-4-(3-(2-((1S,2R,4R)-2-Hydroxy-7-azabicyclo[2.2.1]heptan-7-yl)acetyl)-2-methyl-5-(2-methylcyclopropyl)-1H-pyrrol-1-yl)benzonitrile], the figure is 6.30 to 7.30; as for `COC1C[C@H]2CC[C@H](C1)N2CC(=O)c1cc(C)n(-c2ccc(C#N)cc2)c1C` (stereo partly drawn) [Example 88B, 4-(3-(2-((1R,3r,5S)-3-Methoxy-8-azabicyclo[3.2.1]octan-8-yl)acetyl)-2,5-dimethyl-1H-pyrrol-1-yl)benzonitrile], 6.30 to 7.30.
Under `Cc1cc(C(=O)CN2[C@@H]3CC[C@H]2[C@@H](C(F)(F)F)C3)c(C)n1-c1ccc(C#N)cc1` (racemic) [Example 102B, (±)-4-(2,5-Dimethyl-3-(2-((1R,2R,4S)-2-(trifluoromethyl)-7-azabicyclo[2.2.1]heptan-7-yl)acetyl)-1H-pyrrol-1-yl)benzonitrile] stands below 6.30; under `Cc1c(C(=O)CN2C3CCC2[C@@H](O)C3)cc(C[C@H]2C[C@@H](C#N)C2)n1-c1ccc(C#N)cc1` (mixture of isomers) [Example 4B, (±)-4-(5-4(1s,3S)-3-cyanocyclobutyl)methyl)-3-(2-((1R,2R,4S)-2-hydroxy-7-azabicyclo[2.2.1]heptan-7-yl)acetyl)-2-methyl-1H-pyrrol-1-yl)benzonitrile], above 7.30.
Consider `Cc1c(C(=O)CN2C3CCC2[C@@H](O)C3)cc(CC[Si](C)(C)C)n1-c1ccc(C#N)cc1` (mixture of isomers) [Example 50B, (±)-4-(3-(2-((2R)-2-Hydroxy-7-azabicyclo[2.2.1]heptan-7-yl)acetyl)-2-methyl-5-(2-(trimethylsilyl)ethyl)-1H-pyrrol-1-yl)benzonitrile], for which the negative-log IC50 (pIC50) is 6.30 to 7.30.
As for `Cc1cc(C(=O)CN2C3CCC2[C@@H]2COC[C@H]32)c(C)n1-c1ccc(C#N)cc1` (racemic) [Example 106B, (±)-4-(2,5-Dimethyl-3-(2-((3aR,4R,7S,7aS)-octahydro-4,7-epiminoisobenzofuran-8-yl)acetyl)-1H-pyrrol-1-yl)benzonitrile], the figure is 6.30 to 7.30; as for `Cc1c(C(=O)CN2C3CCC2[C@@H](O)C3)cc(CCCC2CC(C)(C)OC2=O)n1-c1ccc(C#N)cc1` (mixture of isomers) [Example 51B, (±)-4-(5-(3-(5,5-Dimethyl-2-oxotetrahydrofuran-3-yl)propyl)-3-(2-((1R,2R,4S)-2-hydroxy-7-azabicyclo[2.2.1]heptan-7-yl)acetyl)-2-methyl-1H-pyrrol-1-yl)benzonitrile], above 7.30; as for `Cc1cc(C(=O)CN2[C@@H]3CC[C@H]2[C@@H](C)[C@H]3C)c(C)n1-c1ccc(C#N)cc1` [Example 124B, 4-(3-(2-((1R,2R,3S,4S)-2,3-Dimethyl-7-azabicyclo[2.2.1]heptan-7-yl)acetyl)-2,5-dimethyl-1H-pyrrol-1-yl)benzonitrile], 6.30 to 7.30.
`Cc1cc(C(=O)CN2C3CCC2[C@@H](O)C3)c(C)n1-c1ccc(C#N)cc1` (mixture of isomers) [Example 64B, (±)-4-(3-(2-((2R)-2-Hydroxy-7-azabicyclo[2.2.1]heptan-7-yl)acetyl)-2,5-dimethyl-1H-pyrrol-1-yl)benzonitrile] gave a pIC50 of 6.30 to 7.30.
As for `Cc1c(F)c(C(=O)CN2C3CCC2CC3)c(C)n1-c1ccc(C#N)cc1` [Example 104B, 4-(3-(2-((1s,4s)-7-Azabicyclo[2.2.1]heptan-7-yl)acetyl)-4-fluoro-2,5-dimethyl-1H-pyrrol-1-yl)benzonitrile], the figure is 6.30 to 7.30; as for `Cc1c(C(=O)CN2[C@@H]3CC[C@H]2[C@@H](O)C3)cc(CCCC2COC2)n1-c1ccc(C#N)cc1` (racemic) [Example 22B, (±)-4-(3-(2-((1R,2R,4S)-2-Hydroxy-7-azabicyclo[2.2.1]heptan-7-yl)acetyl)-2-methyl-5-(3-(oxetan-3-yl)propyl)-1H-pyrrol-1-yl)benzonitrile], above 7.30.
As for `Cc1c(C(=O)CN2C3CCC2[C@@H](O)C3)cc(CCC2CCOCC2)n1-c1ccc(C#N)cc1` (mixture of isomers) [Example 9B, (±)-4-(3-(2-((2R)-2-Hydroxy-7-azabicyclo[2.2.1]heptan-7-yl)acetyl)-2-methyl-5-(2-(tetrahydro-2H-pyran-4-yl)ethyl)-1H-pyrrol-1-yl)benzonitrile], the figure is above 7.30.
Take `Cc1nccn1C/C=C/c1cc(C(=O)CN2C3CCC2[C@@H](O)C3)c(C)n1-c1ccc(C#N)cc1` (mixture of isomers) [Example 6B, (±)-4-(3-(2-((2R)-2-Hydroxy-7-azabicyclo[2.2.1]heptan-7-yl)acetyl)-2-methyl-5-((E)-3-(2-methyl-1H-imidazol-1-yl)prop-1-en-1-yl)-1H-pyrrol-1-yl)benzonitrile]: the pIC50 is above 7.30.
Under `Cc1c(F)c(C(=O)CN2[C@@H]3CC[C@H]2[C@@H](C(F)(F)F)C3)c(C)n1-c1ccc(C#N)cc1` (racemic) [Example 103B, (±)-4-(3-Fluoro-2,5-dimethyl-4-(2-((1R,2R,4S)-2-(trifluoromethyl)-7-azabicyclo[2.2.1]heptan-7-yl)acetyl)-1H-pyrrol-1-yl)benzonitrile] stands below 6.30; under `Cc1c(C(=O)CN2C3CCC2[C@@H](O)C3)cc(Br)n1-c1ccc(C#N)cc1` (mixture of isomers) [Example 119B, (±)-4-(5-Bromo-3-(2-((2R)-2-hydroxy-7-azabicyclo[2.2.1]heptan-7-yl)acetyl)-2-methyl-1H-pyrrol-1-yl)benzonitrile], 6.30 to 7.30; under `Cc1c(C(=O)CN2C3CCC2[C@@H](O)C3)cc(C(C)(C)C)n1-c1ccc(C#N)cc1` (mixture of isomers) [Example 113B, (±)-4-(5-(tert-Butyl)-3-(2-((2R)-2-hydroxy-7-azabicyclo[2.2.1]heptan-7-yl)acetyl)-2-methyl-1H-pyrrol-1-yl)benzonitrile], 6.30 to 7.30.
As for `Cc1ncc(-c2cc(C(=O)CN3[C@@H]4CC[C@H]3[C@@H](O)C4)c(C)n2-c2ccc(C#N)cc2)s1` (racemic) [Example 147B, (±)-4-(3-(2-((1R,2R,4S)-2-Hydroxy-7-azabicyclo[2.2.1]heptan-7-yl)acetyl)-2-methyl-5-(2-methylthiazol-5-yl)-1H-pyrrol-1-yl)benzonitrile], the negative logarithm of the IC50 (pIC50) was 6.30 to 7.30.
As for `Cc1cc(C(=O)CN2[C@@H]3CC[C@H]2[C@](O)(C(F)(F)F)C3)c(C)n1-c1ccc(C#N)cc1` (racemic) [Example 73B, (±)-4-(3-(2-((1R,2R,4S)-2-Hydroxy-2-(trifluoromethyl)-7-azabicyclo[2.2.1]heptan-7-yl)acetyl)-2,5-dimethyl-1H-pyrrol-1-yl)benzonitrile], the figure is below 6.30.
The compound `Cc1c(C(=O)CN2C3CCC2[C@@H](O)C3)c(Cl)c(CCCCC#N)n1-c1ccc(C#N)c(F)c1` (mixture of isomers) [Example 40B, (±)-4-(3-Chloro-2-(4-cyanobutyl)-4-(2-((2R)-2-hydroxy-7-azabicyclo[2.2.1]heptan-7-yl)acetyl)-5-methyl-1H-pyrrol-1-yl)-2-fluorobenzonitrile] gave a negative-log IC50 (pIC50) above 7.30.
For the compound `Cc1cc(C(=O)CN2C3CCC2[C@@H](O)C3)c(C)n1-c1cc(F)c(C#N)cc1F` (mixture of isomers) [Example 107B, (±)-2,5-Difluoro-4-(3-(2-((2R)-2-hydroxy-7-azabicyclo[2.2.1]heptan-7-yl)acetyl)-2,5-dimethyl-1H-pyrrol-1-yl)benzonitrile], the pIC50 was 6.30 to 7.30.
`Cc1c(C(=O)CN2[C@@H]3CC[C@H]2[C@@H](O)C3)cc(CC2CCC2)n1-c1ccc(C#N)cc1` (racemic) [Example 133B, (±)-4-(5-(Cyclobutylmethyl)-3-(2-((1R,2R,4S)-2-hydroxy-7-azabicyclo[2.2.1]heptan-7-yl)acetyl)-2-methyl-1H-pyrrol-1-yl)benzonitrile] had a pIC50 above 7.30.
`Cc1c(C(=O)CN2[C@@H]3CC[C@H]2[C@@H](O)C3)cc(CCCCC2COC2)n1-c1ccc(C#N)cc1` (racemic) [Example 23B, (±)-4-(3-(2-((1S,2S,4R)-2-Hydroxy-7-azabicyclo[2.2.1]heptan-7-yl)acetyl)-2-methyl-5-(4-(oxetan-3-yl)butyl)-1H-pyrrol-1-yl)benzonitrile] gave a pIC50 above 7.30.
As to `Cc1c(C(=O)CN2C3CCC2[C@@H](O)C3)cc(C2CC(F)C2)n1-c1ccc(C#N)cc1` (mixture of isomers) [Example 132B, (±)-4-(5-(3-Fluorocyclobutyl)-3-(2-((2R)-2-hydroxy-7-azabicyclo[2.2.1]heptan-7-yl)acetyl)-2-methyl-1H-pyrrol-1-yl)benzonitrile], the pIC50 is above 7.30.
Under `Cc1c(C(=O)CN2C3CCC2[C@@H](O)C3)cc(C[C@H]2C[C@H](C#N)C2)n1-c1ccc(C#N)cc1` (mixture of isomers) [Example 45B, (±)-4-(5-(((1r,3R)-3-Cyanocyclobutyl)methyl)-3-(2-((2R)-2-hydroxy-7-azabicyclo[2.2.1]heptan-7-yl)acetyl)-2-methyl-1H-pyrrol-1-yl)benzonitrile] stands above 7.30; under `Cc1cc(C(=O)CN2C3CCC2[C@@H](O)C3)c(C)n1-c1cc(F)c(C#N)c(F)c1` (mixture of isomers) [Example 94B, (±)-2,6-Difluoro-4-(3-(2-((2R)-2-hydroxy-7-azabicyclo[2.2.1]heptan-7-yl)acetyl)-2,5-dimethyl-1H-pyrrol-1-yl)benzonitrile], 6.30 to 7.30.
